Experimental data from ChEMBL document CHEMBL1135844, “Novel human metabolites of the angiotensin-II antagonist tasosartan and their pharmacological effects” (Bioorg Med Chem Lett, 2002).

Biological target: T1, Type-1 angiotensin II receptor (Homo sapiens, UniProt P30556)
T1 sequence (P30556 whole entry): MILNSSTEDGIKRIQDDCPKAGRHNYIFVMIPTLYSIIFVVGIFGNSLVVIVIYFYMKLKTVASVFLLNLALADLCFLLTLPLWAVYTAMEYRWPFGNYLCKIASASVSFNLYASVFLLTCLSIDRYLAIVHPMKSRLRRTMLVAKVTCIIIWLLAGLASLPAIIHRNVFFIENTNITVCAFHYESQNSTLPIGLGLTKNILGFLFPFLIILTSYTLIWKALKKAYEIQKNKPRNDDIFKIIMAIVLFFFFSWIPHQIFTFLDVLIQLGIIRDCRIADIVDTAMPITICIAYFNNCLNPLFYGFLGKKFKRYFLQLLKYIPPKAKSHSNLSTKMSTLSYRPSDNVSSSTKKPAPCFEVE
Experiment: Compound was tested in vitro for inhibitory activity against human Angiotensin II receptor in cultured preadipocytes
Format: cell-based

| IC50 | SMILES |
| --- | --- |
| 0.044 µM | Cc1nc(C(=O)O)c2c(n1)N(Cc1ccc(-c3ccccc3-c3nnn[nH]3)cc1)C(=O)CC2 |
| 0.044 µM | O=c1ccc2c(CO)nc(CO)nc2n1Cc1ccc(-c2ccccc2-c2nn[nH]n2)cc1 |
| 0.023 µM | Cc1nc(C(=O)O)nc2c1CCC(=O)N2Cc1ccc(-c2ccccc2-c2nnn[nH]2)cc1 |
| 0.038 µM | Cc1nc(C)c2c(n1)N(Cc1ccc(-c3ccccc3-c3nnn[nH]3)cc1)C(=O)CC2 [TASOSARTAN] |
